Key:
Assay type in all cases: functional
Burkholderia cepacia = test: Antimicrobial activity against Burkholderia cepacia clinical isolate after 18 to 22 hrs by broth microdilution method
Pseudomonas aeruginosa = test: Antimicrobial activity against Pseudomonas aeruginosa clinical isolate after 18 to 22 hrs by broth microdilution method
Haemophilus influenzae = test: Antimicrobial activity against beta-lactamase-negative Haemophilus influenzae clinical isolate after 18 to 22 hrs by broth microdilution method
[1] = test system: Haemophilus parainfluenzae; test: Antimicrobial activity against Haemophilus parainfluenzae clinical isolate after 18 to 22 hrs by broth microdilution method
Moraxella catarrhalis = test: Antimicrobial activity against Moraxella catarrhalis clinical isolate after 18 to 22 hrs by broth microdilution method
Staphylococcus aureus [2] = test: Antimicrobial activity against methicillin-resistant Staphylococcus aureus clinical isolate after 18 to 22 hrs by broth microdilution method
Staphylococcus aureus [3] = test: Antimicrobial activity against methicillin-susceptible Staphylococcus aureus clinical isolate after 18 to 22 hrs by broth microdilution method
[4] = test system: Staphylococcus epidermidis; test: Antimicrobial activity against methicillin-resistant Staphylococcus epidermidis clinical isolate after 18 to 22 hrs by broth microdilution method
[5] = test system: Staphylococcus haemolyticus; test: Antimicrobial activity against Staphylococcus haemolyticus clinical isolate after 18 to 22 hrs by broth microdilution method
Enterococcus faecalis [6] = test: Antimicrobial activity against Enterococcus faecalis clinical isolate after 18 to 22 hrs by broth microdilution method
Enterococcus faecium [7] = test: Antimicrobial activity against Enterococcus faecium clinical isolate after 18 to 22 hrs by broth microdilution method
Enterococcus faecalis [8] = test: Antimicrobial activity against vancomycin-resistant Enterococcus faecalis clinical isolate after 18 to 22 hrs by broth microdilution method
Enterococcus faecium [9] = test: Antimicrobial activity against vancomycin-resistant Enterococcus faecium clinical isolate after 18 to 22 hrs by broth microdilution method
Enterococcus avium = test: Antimicrobial activity against Enterococcus avium clinical isolate after 18 to 22 hrs by broth microdilution method
Streptococcus pneumoniae [10] = test: Antimicrobial activity against penicillin-intermediate Streptococcus pneumoniae clinical isolate after 18 to 22 hrs by broth microdilution method
Streptococcus pneumoniae [11] = test: Antimicrobial activity against penicillin-resistant Streptococcus pneumoniae clinical isolate after 18 to 22 hrs by broth microdilution method
Streptococcus pyogenes = test: Antimicrobial activity against Streptococcus pyogenes clinical isolate after 18 to 22 hrs by broth microdilution method
[12] = test system: Enterococcus casseliflavus; test: Antimicrobial activity against Enterococcus casseliflavus clinical isolate after 18 to 22 hrs by broth microdilution method
Enterococcus gallinarum = test: Antimicrobial activity against Enterococcus gallinarum clinical isolate after 18 to 22 hrs by broth microdilution method
Enterococcus hirae = test: Antimicrobial activity against Enterococcus hirae clinical isolate after 18 to 22 hrs by broth microdilution method
Streptococcus agalactiae = test: Antimicrobial activity against Streptococcus agalactiae clinical isolate after 18 to 22 hrs by broth microdilution method
Citrobacter koseri = test: Antimicrobial activity against Citrobacter koseri clinical isolate after 18 to 22 hrs by broth microdilution method
Escherichia coli [13] = test: Antimicrobial activity against class A extended spectrum beta-lactamase- and class D OXA- producing Escherichia coli clinical isolate after 18 to 22 hrs by broth microdilution method
Escherichia coli [14] = test: Antimicrobial activity against Escherichia coli clinical isolate after 18 to 22 hrs by broth microdilution method
Escherichia coli [15] = test: Antimicrobial activity against class A extended spectrum beta-lactamase- producing Escherichia coli clinical isolate after 18 to 22 hrs by broth microdilution method
Citrobacter freundii [16] = test: Antimicrobial activity against AmpC beta-lactamase-producing Citrobacter freundii clinical isolate after 18 to 22 hrs by broth microdilution method
Enterobacter cloacae = test: Antimicrobial activity against AmpC beta-lactamase-producing Enterobacter cloacae clinical isolate after 18 to 22 hrs by broth microdilution method
Serratia marcescens [17] = test: Antimicrobial activity against AmpC beta-lactamase-producing Serratia marcescens clinical isolate after 18 to 22 hrs by broth microdilution method
Klebsiella aerogenes = test: Antimicrobial activity against Enterobacter aerogenes clinical isolate after 18 to 22 hrs by broth microdilution method
Citrobacter freundii [18] = test: Antimicrobial activity against Citrobacter freundii clinical isolate after 18 to 22 hrs by broth microdilution method
Klebsiella pneumoniae [19] = test: Antimicrobial activity against class A extended spectrum beta-lactamase- and class D OXA- producing Klebsiella pneumoniae clinical isolate after 18 to 22 hrs by broth microdilution method
Klebsiella pneumoniae [20] = test: Antimicrobial activity against AmpC- producing Klebsiella pneumoniae clinical isolate after 18 to 22 hrs by broth microdilution method
Serratia marcescens [21] = test: Antimicrobial activity against Serratia marcescens clinical isolate after 18 to 22 hrs by broth microdilution method
Morganella morganii = test: Antimicrobial activity against Morganella morganii clinical isolate after 18 to 22 hrs by broth microdilution method
Proteus mirabilis = test: Antimicrobial activity against Proteus mirabilis clinical isolate after 18 to 22 hrs by broth microdilution method
Proteus vulgaris = test: Antimicrobial activity against Proteus vulgaris clinical isolate after 18 to 22 hrs by broth microdilution method
Providencia rettgeri = test: Antimicrobial activity against Providencia rettgeri clinical isolate after 18 to 22 hrs by broth microdilution method
Acinetobacter baumannii = test: Antimicrobial activity against Acinetobacter baumannii clinical isolate after 18 to 22 hrs by broth microdilution method
Acinetobacter junii = test: Antimicrobial activity against Acinetobacter junii clinical isolate after 18 to 22 hrs by broth microdilution method
Acinetobacter lwoffii = test: Antimicrobial activity against Acinetobacter lwoffii clinical isolate after 18 to 22 hrs by broth microdilution method

Q: For `C[C@H]1COc2c(N3CCN(C)CC3)c(F)cc3c(=O)c(C(=O)O)cn1c23.C[C@H]1COc2c(N3CCN(C)CC3)c(F)cc3c(=O)c(C(=O)O)cn1c23.O` [LEVOFLOXACIN], which MIC50 (Burkholderia cepacia) is on record?
A: 2 µg/mL

Q: And the MIC90 (Burkholderia cepacia)?
A: 4 µg/mL

Q: What about the MIC50 (Pseudomonas aeruginosa) of the same compound?
A: 1 µg/mL

Q: What about the MIC90 (Pseudomonas aeruginosa) of the same compound?
A: > 16 µg/mL

Q: What about the MIC (Haemophilus influenzae) of the same compound?
A: ≤ 0.015 µg/mL

Q: And the MIC50 (Haemophilus influenzae)?
A: ≤ 0.015 µg/mL

Q: What about the MIC90 (Haemophilus influenzae) of the same compound?
A: ≤ 0.015 µg/mL

Q: What about the MIC [1] of the same compound?
A: ≤ 0.015 µg/mL

Q: And the MIC50 [1]?
A: ≤ 0.015 µg/mL

Q: What about the MIC90 [1] of the same compound?
A: 0.06 µg/mL

Q: And the MIC50 (Moraxella catarrhalis)?
A: 0.03 µg/mL

Q: What about the MIC90 (Moraxella catarrhalis) of the same compound?
A: 0.06 µg/mL

Q: What about the MIC50 (Staphylococcus aureus [2]) of the same compound?
A: 4 µg/mL

Q: What about the MIC90 (Staphylococcus aureus [2]) of the same compound?
A: > 16 µg/mL

Q: And the MIC50 (Staphylococcus aureus [3])?
A: 0.25 µg/mL

Q: And the MIC90 (Staphylococcus aureus [3])?
A: 0.5 µg/mL

Q: And the MIC50 [4]?
A: 2 µg/mL

Q: What about the MIC90 [4] of the same compound?
A: > 16 µg/mL

Q: What about the MIC50 [5] of the same compound?
A: 8 µg/mL

Q: What about the MIC90 [5] of the same compound?
A: 16 µg/mL

Q: And the MIC50 (Enterococcus faecalis [6])?
A: 1 µg/mL

Q: What about the MIC90 (Enterococcus faecalis [6]) of the same compound?
A: > 16 µg/mL

Q: And the MIC50 (Enterococcus faecium [7])?
A: 4 µg/mL

Q: What about the MIC90 (Enterococcus faecium [7]) of the same compound?
A: > 16 µg/mL

Q: And the MIC50 (Enterococcus faecalis [8])?
A: 2 µg/mL

Q: And the MIC (Enterococcus faecium [9])?
A: > 16 µg/mL

Q: And the MIC50 (Enterococcus faecium [9])?
A: > 16 µg/mL

Q: And the MIC50 (Enterococcus avium)?
A: 2 µg/mL

Q: And the MIC90 (Enterococcus avium)?
A: 2 µg/mL

Q: What about the MIC50 (Streptococcus pneumoniae [10]) of the same compound?
A: 0.5 µg/mL

Q: And the MIC90 (Streptococcus pneumoniae [10])?
A: 1 µg/mL

Q: And the MIC50 (Streptococcus pneumoniae [11])?
A: 1 µg/mL

Q: What about the MIC90 (Streptococcus pneumoniae [11]) of the same compound?
A: 1 µg/mL

Q: What about the MIC50 (Streptococcus pyogenes) of the same compound?
A: 0.5 µg/mL

Q: What about the MIC90 (Streptococcus pyogenes) of the same compound?
A: 0.5 µg/mL

Q: What about the MIC50 [12] of the same compound?
A: 1 µg/mL

Q: And the MIC90 [12]?
A: 8 µg/mL

Q: What about the MIC50 (Enterococcus gallinarum) of the same compound?
A: 1 µg/mL

Q: What about the MIC90 (Enterococcus gallinarum) of the same compound?
A: 8 µg/mL

Q: And the MIC50 (Enterococcus hirae)?
A: 1 µg/mL

Q: What about the MIC90 (Enterococcus hirae) of the same compound?
A: 8 µg/mL

Q: What about the MIC50 (Streptococcus agalactiae) of the same compound?
A: 1 µg/mL

Q: And the MIC90 (Streptococcus agalactiae)?
A: 1 µg/mL

Q: And the MIC50 (Citrobacter koseri)?
A: 0.03 µg/mL

Q: And the MIC90 (Citrobacter koseri)?
A: 0.06 µg/mL

Q: What about the MIC50 (Escherichia coli [13]) of the same compound?
A: 16 µg/mL

Q: And the MIC90 (Escherichia coli [13])?
A: > 16 µg/mL

Q: What about the MIC50 (Escherichia coli [14]) of the same compound?
A: 0.03 µg/mL

Q: What about the MIC90 (Escherichia coli [14]) of the same compound?
A: 8 µg/mL

Q: And the MIC50 (Escherichia coli [15])?
A: 8 µg/mL

Q: And the MIC90 (Escherichia coli [15])?
A: > 16 µg/mL

Q: What about the MIC50 (Citrobacter freundii [16]) of the same compound?
A: 0.12 µg/mL

Q: And the MIC90 (Citrobacter freundii [16])?
A: 8 µg/mL

Q: What about the MIC50 (Enterobacter cloacae) of the same compound?
A: 0.12 µg/mL

Q: What about the MIC90 (Enterobacter cloacae) of the same compound?
A: 8 µg/mL

Q: What about the MIC50 (Serratia marcescens [17]) of the same compound?
A: 0.12 µg/mL

Q: What about the MIC90 (Serratia marcescens [17]) of the same compound?
A: 8 µg/mL

Q: And the MIC50 (Klebsiella aerogenes)?
A: 0.06 µg/mL

Q: And the MIC90 (Klebsiella aerogenes)?
A: 0.5 µg/mL

Q: What about the MIC50 (Citrobacter freundii [18]) of the same compound?
A: 0.12 µg/mL

Q: And the MIC90 (Citrobacter freundii [18])?
A: 2 µg/mL

Q: What about the MIC50 (Klebsiella pneumoniae [19]) of the same compound?
A: 1 µg/mL

Q: What about the MIC90 (Klebsiella pneumoniae [19]) of the same compound?
A: > 16 µg/mL

Q: And the MIC50 (Klebsiella pneumoniae [20])?
A: 2 µg/mL

Q: And the MIC90 (Klebsiella pneumoniae [20])?
A: > 16 µg/mL

Q: What about the MIC50 (Serratia marcescens [21]) of the same compound?
A: 0.12 µg/mL

Q: And the MIC90 (Serratia marcescens [21])?
A: 4 µg/mL

Q: And the MIC50 (Morganella morganii)?
A: 0.03 µg/mL

Q: And the MIC90 (Morganella morganii)?
A: > 16 µg/mL

Q: And the MIC50 (Proteus mirabilis)?
A: 0.5 µg/mL

Q: And the MIC90 (Proteus mirabilis)?
A: 16 µg/mL

Q: And the MIC (Proteus vulgaris)?
A: 0.03 µg/mL

Q: What about the MIC50 (Proteus vulgaris) of the same compound?
A: 0.03 µg/mL

Q: What about the MIC90 (Proteus vulgaris) of the same compound?
A: 0.12 µg/mL

Q: What about the MIC50 (Providencia rettgeri) of the same compound?
A: 1 µg/mL

Q: What about the MIC90 (Providencia rettgeri) of the same compound?
A: 16 µg/mL

Q: What about the MIC50 (Acinetobacter baumannii) of the same compound?
A: 8 µg/mL

Q: What about the MIC90 (Acinetobacter baumannii) of the same compound?
A: 16 µg/mL

Q: And the MIC50 (Acinetobacter junii)?
A: 0.12 µg/mL

Q: And the MIC90 (Acinetobacter junii)?
A: 2 µg/mL

Q: And the MIC50 (Acinetobacter lwoffii)?
A: 0.12 µg/mL

Q: And the MIC90 (Acinetobacter lwoffii)?
A: 2 µg/mL
